Source: ChEMBL document CHEMBL4184305, “Inhibition of histone lysine methyltransferases G9a and GLP by ejection of structural Zn(II)” (Bioorg Med Chem Lett, 2018)
Active and inactive are the calls of the source. The calls are words filed in the database; no cut-off is given here.

Columns and labels:
[1] = molecular target: T1, Histone-lysine N-methyltransferase EHMT2 (Homo sapiens) (UniProt Q96KQ7); assay: Inhibition of wild type recombinant human histone lysine methyltransferase G9a (913 to 1193 residues) expressed in Escherichia coli Rosetta BL21 DE3 PlysS assessed as zinc ions ejection from 3 types of Cys9-type Zn fingers at >50 uM after 1 hr by circular dichroism analysis
T1 sequence (whole entry): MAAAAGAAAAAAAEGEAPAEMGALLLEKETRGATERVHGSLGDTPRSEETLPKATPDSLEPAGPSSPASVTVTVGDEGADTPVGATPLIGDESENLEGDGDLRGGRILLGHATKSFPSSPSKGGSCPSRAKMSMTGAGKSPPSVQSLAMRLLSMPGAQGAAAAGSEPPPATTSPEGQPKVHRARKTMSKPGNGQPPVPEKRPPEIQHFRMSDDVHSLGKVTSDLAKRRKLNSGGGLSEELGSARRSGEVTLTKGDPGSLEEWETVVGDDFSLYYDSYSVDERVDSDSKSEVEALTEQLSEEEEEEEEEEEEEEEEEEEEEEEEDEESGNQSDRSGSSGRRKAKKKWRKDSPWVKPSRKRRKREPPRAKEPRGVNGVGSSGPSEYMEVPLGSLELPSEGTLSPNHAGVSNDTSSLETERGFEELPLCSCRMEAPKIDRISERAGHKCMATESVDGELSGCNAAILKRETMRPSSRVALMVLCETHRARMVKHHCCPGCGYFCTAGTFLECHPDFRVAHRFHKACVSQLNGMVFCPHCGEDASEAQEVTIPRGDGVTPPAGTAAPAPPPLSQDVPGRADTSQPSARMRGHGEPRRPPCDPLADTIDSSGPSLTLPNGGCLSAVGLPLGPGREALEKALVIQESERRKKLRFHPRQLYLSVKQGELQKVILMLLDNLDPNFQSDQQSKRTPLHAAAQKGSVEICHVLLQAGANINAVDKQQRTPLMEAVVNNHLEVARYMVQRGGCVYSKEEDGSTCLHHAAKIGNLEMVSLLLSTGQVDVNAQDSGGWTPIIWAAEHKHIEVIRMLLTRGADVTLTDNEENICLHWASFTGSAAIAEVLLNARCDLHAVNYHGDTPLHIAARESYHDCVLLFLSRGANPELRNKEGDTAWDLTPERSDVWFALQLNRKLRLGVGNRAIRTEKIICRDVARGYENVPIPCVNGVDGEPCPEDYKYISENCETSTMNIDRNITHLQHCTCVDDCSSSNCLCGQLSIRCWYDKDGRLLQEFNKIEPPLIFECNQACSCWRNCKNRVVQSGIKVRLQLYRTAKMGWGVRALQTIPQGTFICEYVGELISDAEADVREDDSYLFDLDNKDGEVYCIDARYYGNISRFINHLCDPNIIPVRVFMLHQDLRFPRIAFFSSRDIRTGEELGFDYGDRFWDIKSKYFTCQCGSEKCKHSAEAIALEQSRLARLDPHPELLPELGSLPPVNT

[2] = molecular target: T2, Histone-lysine N-methyltransferase EHMT1 (Homo sapiens) (UniProt Q9H9B1); assay: Inhibition of wild type recombinant human histone lysine methyltransferase GLP (951 to 1235 residues) expressed in Escherichia coli Rosetta BL21 DE3 PlysS assessed as zinc ions ejection from 3 types of Cys9-type Zn fingers at >50 uM after 1 hr by circular dichroism analysis
T2 sequence (whole entry): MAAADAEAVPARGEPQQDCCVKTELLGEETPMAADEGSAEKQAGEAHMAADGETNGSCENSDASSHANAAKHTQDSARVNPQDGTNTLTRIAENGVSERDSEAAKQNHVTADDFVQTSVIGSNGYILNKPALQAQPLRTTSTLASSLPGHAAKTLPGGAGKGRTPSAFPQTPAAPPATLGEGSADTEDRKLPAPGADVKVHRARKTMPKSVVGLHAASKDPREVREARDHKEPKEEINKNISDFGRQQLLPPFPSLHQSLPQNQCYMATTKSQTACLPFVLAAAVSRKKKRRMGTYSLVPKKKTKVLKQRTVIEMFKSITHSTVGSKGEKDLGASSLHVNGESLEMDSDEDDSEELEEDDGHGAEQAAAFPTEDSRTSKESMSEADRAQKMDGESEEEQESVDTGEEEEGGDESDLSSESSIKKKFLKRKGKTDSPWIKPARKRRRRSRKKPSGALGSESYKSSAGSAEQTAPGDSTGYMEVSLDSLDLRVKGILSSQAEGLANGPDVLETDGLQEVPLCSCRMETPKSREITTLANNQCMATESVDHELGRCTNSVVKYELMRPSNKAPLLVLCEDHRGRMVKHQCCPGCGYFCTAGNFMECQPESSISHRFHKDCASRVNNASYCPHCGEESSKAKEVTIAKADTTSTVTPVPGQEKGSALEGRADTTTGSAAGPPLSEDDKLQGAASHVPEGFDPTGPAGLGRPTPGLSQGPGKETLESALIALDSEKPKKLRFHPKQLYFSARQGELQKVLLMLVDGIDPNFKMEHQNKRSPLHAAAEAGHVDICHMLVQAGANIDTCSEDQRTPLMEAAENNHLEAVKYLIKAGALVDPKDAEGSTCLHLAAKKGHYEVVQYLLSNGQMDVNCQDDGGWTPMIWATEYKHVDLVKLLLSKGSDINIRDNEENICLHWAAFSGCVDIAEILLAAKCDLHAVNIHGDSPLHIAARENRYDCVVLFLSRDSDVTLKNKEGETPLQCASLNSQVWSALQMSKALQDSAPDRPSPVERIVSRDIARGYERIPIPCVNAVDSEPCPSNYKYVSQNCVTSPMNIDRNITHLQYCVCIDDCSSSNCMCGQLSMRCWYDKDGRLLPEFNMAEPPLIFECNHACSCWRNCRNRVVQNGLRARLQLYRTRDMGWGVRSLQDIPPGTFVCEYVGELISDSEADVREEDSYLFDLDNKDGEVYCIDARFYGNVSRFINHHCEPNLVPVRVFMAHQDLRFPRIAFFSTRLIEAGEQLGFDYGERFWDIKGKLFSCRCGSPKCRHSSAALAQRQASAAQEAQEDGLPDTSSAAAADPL

[3] = molecular target: T2, Histone-lysine N-methyltransferase EHMT1 (Homo sapiens); assay: Inhibition of wild type recombinant human histone lysine methyltransferase GLP (951 to 1235 residues) expressed in Escherichia coli Rosetta BL21 DE3 PlysS assessed as zinc ions ejection from Cys4-Zn finger at 2.5 to 100 uM measured up to 1 min by FluoZin-3 based fluorescence assay
[4] = molecular target: T2, Histone-lysine N-methyltransferase EHMT1 (Homo sapiens); assay: Inhibition of wild type recombinant human histone lysine methyltransferase GLP (951 to 1235 residues) expressed in Escherichia coli Rosetta BL21 DE3 PlysS assessed as zinc ions ejection from 3 types of Cys9-type Zn fingers at >25 uM after 1 hr by circular dichroism analysis
[5] = molecular target: T2, Histone-lysine N-methyltransferase EHMT1 (Homo sapiens); assay: Inhibition of wild type recombinant human histone lysine methyltransferase GLP (951 to 1235 residues) expressed in Escherichia coli Rosetta BL21 DE3 PlysS assessed as zinc ions ejection from Cys4-Zn finger at >25 uM after 1 hr by circular dichroism analysis

For CCN(CC)C(=S)SSC(=S)N(CC)CC, which inhibition [1] is on record?
Its inhibition is “Active”.

What about the inhibition [2] of the same molecule?
Its inhibition is “Active”.

O=c1c2ccccc2[se]n1-c1ccccc1 [EBSELEN] was tested. Which inhibition [3] did it give?
Its inhibition is “Active”.

And the inhibition [4]?
The inhibition was “Active”.

What about the inhibition [5] of the same molecule?
Its inhibition is “Active”.
